These results are taken from US20120129833A1, “CYCLIC KETOENOLS FOR THERAPY” (BAYER PHARMA AKTIENGESELLSCHAFT, priority 2010, published 2012).

In general, IC50 refers to the concentration that gives 50% inhibition.

Assay [1] deals with T1, ACC2 (acetyl-CoA carboxylase 2) (Homo sapiens, UniProt O00763).
T1 construct: catalogue no; 50201, amino acids 39—end, expressed in baculovirus-transfected Sf9 insect cells; His (C); purchased BPS Bioscience (San Diego, Calif.) 50201; host or cells: baculovirus-transfected Sf9 insect cells
In words: Human ACC2 enzyme assay (HTRF ADP detection). The settings on record: 20 μM acetyl-CoA, 15 min pre-incubation, 20 min at 22° C.; read-out: ACC 2 IC50. It counts as biochemical. (In general: Time-resolved FRET reads energy transfer from a long-lived donor to a nearby acceptor.)

Assay [2] has as its target T2, recombinant human ACC1 (acetyl-CoA carboxylase 1) (Homo sapiens, UniProt Q13085).
T2 construct: NM_198834, amino acids 39—end; FLAG (C); made in house; host or cells: baculovirus-transfected insect cells (Hi5)
In words: Human ACC1 enzyme assay (HTRF ADP detection).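 Further: ADP by-product quantified by competitive HTRF immunoassay with europium cryptate anti-ADP antibody and d2-labelled ADP, read after 1 h binding at 22 °C, enzyme near 2.5 ng/µl.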 The settings on record: 50 μM ATP, 20 μM acetyl-CoA, 15 min pre-incubation, 20 min at 22° C.; read-out: ACC 1 IC50. The format is biochemical.
Procedure: The basic principle of the assay is the measurement of adenosine diphosphate (ADP), which is formed as a by-product, by means of an HTRF®-based competitive immunoassay (HTRF=Homogeneous Time Resolved Fluorescence).
The amount of complex of d2-labelled ADP and europium cryptate-labelled anti-ADP antibody was then determined by measuring the resonance energy transfer of europium cryptate to d2.

T1 sequence (O00763 39-2458 limits assumed): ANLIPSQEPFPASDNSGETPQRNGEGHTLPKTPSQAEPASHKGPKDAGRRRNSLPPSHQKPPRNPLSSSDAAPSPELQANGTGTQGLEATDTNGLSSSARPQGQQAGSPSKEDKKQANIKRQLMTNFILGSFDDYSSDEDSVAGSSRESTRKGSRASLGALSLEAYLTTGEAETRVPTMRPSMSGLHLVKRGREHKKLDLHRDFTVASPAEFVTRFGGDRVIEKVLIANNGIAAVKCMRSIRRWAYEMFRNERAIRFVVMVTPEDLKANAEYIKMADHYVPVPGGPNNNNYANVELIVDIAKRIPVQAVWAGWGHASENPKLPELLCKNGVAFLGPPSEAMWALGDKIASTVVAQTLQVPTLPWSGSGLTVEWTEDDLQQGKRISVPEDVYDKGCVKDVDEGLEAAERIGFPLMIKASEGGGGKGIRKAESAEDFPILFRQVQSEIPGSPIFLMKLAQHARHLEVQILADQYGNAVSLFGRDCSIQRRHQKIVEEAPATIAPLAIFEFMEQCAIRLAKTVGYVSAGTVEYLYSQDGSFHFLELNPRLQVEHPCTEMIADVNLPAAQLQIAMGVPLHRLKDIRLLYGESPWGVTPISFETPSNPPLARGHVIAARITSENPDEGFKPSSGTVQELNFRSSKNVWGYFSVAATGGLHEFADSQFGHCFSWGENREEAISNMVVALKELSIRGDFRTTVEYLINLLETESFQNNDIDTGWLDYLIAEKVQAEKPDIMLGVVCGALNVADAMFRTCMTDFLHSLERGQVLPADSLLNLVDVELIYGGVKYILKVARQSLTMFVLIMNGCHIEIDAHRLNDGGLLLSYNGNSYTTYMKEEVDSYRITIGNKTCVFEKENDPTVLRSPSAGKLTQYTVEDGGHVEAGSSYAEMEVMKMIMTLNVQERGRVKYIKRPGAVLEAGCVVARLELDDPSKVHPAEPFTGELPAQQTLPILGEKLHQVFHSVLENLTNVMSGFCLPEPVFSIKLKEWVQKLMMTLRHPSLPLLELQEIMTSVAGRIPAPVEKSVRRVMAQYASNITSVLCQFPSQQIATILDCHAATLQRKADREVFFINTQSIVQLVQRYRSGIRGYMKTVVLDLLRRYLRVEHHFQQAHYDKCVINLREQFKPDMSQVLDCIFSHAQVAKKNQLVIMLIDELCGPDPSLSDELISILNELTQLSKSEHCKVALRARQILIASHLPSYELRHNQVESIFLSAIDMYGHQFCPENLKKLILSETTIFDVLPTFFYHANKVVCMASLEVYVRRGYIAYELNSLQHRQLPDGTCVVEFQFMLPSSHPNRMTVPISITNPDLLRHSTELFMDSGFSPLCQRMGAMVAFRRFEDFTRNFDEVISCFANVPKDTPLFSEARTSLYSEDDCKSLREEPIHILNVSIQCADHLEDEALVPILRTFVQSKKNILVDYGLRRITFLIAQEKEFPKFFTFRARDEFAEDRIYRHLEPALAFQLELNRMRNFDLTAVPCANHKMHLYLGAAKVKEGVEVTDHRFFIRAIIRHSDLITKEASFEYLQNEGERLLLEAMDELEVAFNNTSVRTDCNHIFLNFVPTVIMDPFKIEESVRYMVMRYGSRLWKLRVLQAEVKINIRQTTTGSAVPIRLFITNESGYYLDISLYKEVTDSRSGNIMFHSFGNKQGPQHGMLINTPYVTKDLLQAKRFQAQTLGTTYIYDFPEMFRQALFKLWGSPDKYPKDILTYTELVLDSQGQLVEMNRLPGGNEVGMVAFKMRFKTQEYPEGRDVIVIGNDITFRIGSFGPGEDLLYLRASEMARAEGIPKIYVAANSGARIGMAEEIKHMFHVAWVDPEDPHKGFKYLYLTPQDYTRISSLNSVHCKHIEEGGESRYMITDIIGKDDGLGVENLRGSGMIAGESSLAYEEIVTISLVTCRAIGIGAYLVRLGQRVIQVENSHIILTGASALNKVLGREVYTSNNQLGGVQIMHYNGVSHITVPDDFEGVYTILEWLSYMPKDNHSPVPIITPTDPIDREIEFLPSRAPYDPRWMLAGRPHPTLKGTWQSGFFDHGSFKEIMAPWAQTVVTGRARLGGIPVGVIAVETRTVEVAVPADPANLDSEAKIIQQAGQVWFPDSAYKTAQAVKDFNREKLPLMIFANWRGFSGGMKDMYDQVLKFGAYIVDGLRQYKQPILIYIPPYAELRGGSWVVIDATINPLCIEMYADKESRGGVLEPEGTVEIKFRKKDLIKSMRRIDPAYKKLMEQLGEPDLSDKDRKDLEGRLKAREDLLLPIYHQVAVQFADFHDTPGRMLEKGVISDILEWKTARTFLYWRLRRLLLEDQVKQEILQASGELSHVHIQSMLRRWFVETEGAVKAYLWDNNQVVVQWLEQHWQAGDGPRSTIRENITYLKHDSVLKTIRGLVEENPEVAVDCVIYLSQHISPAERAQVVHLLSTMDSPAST

Consider `Cc1cc(C)c(-c2ccc(Cl)cc2)cc1C1=C(O)C(C)OC1=O` (stereo not drawn) [Example 2-45, 3-(4′-chloro-4,6-dimethylbiphenyl-3-yl)-4-hydroxy-5-methylfuran-2(5H)-one], for which the results for the IC50 in assay [1] and in assay [2] were 17000 nM and 568 nM, respectively.

Consider `Cc1cc(C)c(-c2ccc(Cl)cc2)cc1C1=C(O)C2(CCCOC2)OC1=O` (stereo not drawn) [Example 2-46, 3-(4′-chloro-4,6-dimethylbiphenyl-3-yl)-4-hydroxy-1,7-dioxaspiro[4.5]dec-3-en-2-one], for which the IC50 is 7610 nM in assay [1] and 580 nM in assay [2].

Consider `Cc1cc(C)c(-c2ccc(Cl)cc2)c(C)c1C1=C(O)C2(CCCCCC2)OC1=O` [Example 2-48, 3-(4′-chloro-2,4,6-trimethylbiphenyl-3-yl)-4-hydroxy-1-oxaspiro[4.6]undec-3-en-2-one], for which the IC50 was found to be 204 nM in assay [1] and 1800 nM in assay [2].

On to `Cc1cc(C)c(-c2ccc(Cl)cc2)c(C)c1C1=C(O)C2(CCCC2)OC1=O` [Example 2-49, 3-(4′-chloro-2,4,6-trimethylbiphenyl-3-yl)-4-hydroxy-1-oxaspiro[4.4]non-3-en-2-one], for which the values for the IC50 in assay [1] and in assay [2] were 1280 nM and 5780 nM, respectively.

In the case of `Cc1ccc(-c2cccc(Cl)c2)cc1C1=C(O)C2(CCCCCC2)OC1=O` [Example 2-50, 3-(3′-chloro-4-methylbiphenyl-3-yl)-4-hydroxy-1-oxaspiro[4.6]undec-3-en-2-one], the IC50 in assay [1] was 8590 nM; in assay [2] it was 903 nM.

In the case of `Cc1ccc(-c2ccc(Cl)cc2)cc1C1=C(O)C2(CCCCC2)SC1=O` [Example 3-2, 3-(4′-chloro-4-methylbiphenyl-3-yl)-4-hydroxy-1-thiaspiro[4.5]dec-3-en-2-one], the IC50 in assay [1] turned out to be 1670 nM; in assay [2] it was 97 nM.

For the compound `Cc1cc(C)c(-c2ccc(Cl)cc2)cc1C1=C(O)C2(CCCCC2)SC1=O` [Example 3-3, 3-(4′-chloro-4,6-dimethylbiphenyl-3-yl)-4-hydroxy-1-thiaspiro[4.5]dec-3-en-2-one], the IC50 in assay [1] was determined as 250 nM; in assay [2] it was 340 nM.

With `Cc1cc(C)c(-c2ccc(Cl)cc2)c(C)c1C1=C(O)C2(CCCCC2)SC1=O` [Example 3-4, 3-(4′-chloro-2,4,6-trimethylbiphenyl-3-yl)-4-hydroxy-1-thiaspiro[4.5]dec-3-en-2-one], the results for the IC50 in assay [1] and in assay [2] were 228 nM and 1310 nM, respectively.

Consider `Cc1ccc(-c2ccc(C)c(C3=C(O)C4(CCCCC4)CC3=O)c2)cc1` [Example 6-1, 3-(4,4′-dimethylbiphenyl-3-yl)-4-hydroxyspiro[4.5]dec-3-en-2-one], for which the IC50 in assay [1] came out at 16000 nM; in assay [2], 655 nM.

`Cc1ccc(-c2ccc(Cl)cc2Cl)cc1C1=C(O)C2(CCCCC2)CC1=O` [Example 6-2, 3-(2′,4′-dichloro-4-methylbiphenyl-3-yl)-4-hydroxyspiro[4.5]dec-3-en-2-one]: the IC50 in assay [1] came to 1690 nM; in assay [2], 337 nM.

In the case of `Cc1ccc(-c2cccc(Cl)c2)cc1C1=C(O)C2(CCCCC2)CC1=O` [Example 6-3, 3-(3′-chloro-4-methylbiphenyl-3-yl)-4-hydroxyspiro[4.5]dec-3-en-2-one], the IC50 was determined as 16200 nM in assay [1] and 1390 nM in assay [2].

For `Cc1ccc(-c2ccc(Cl)cc2)cc1C1=C(O)C2(CCCC2)CC1=O` [Example 6-4, 3-(4′-chloro-4-methylbiphenyl-3-yl)-4-hydroxyspiro[4.4]non-3-en-2-one], the IC50 in assay [1] was 3060 nM; in assay [2], 333 nM.

As for `CCC1CCC2(CC1)CC(=O)C(c1cc(-c3ccc(Cl)cc3)ccc1C)=C2O` (stereo not drawn) [Example 6-5, 3-(4′-chloro-4-methylbiphenyl-3-yl)-8-ethyl-4-hydroxyspiro[4.5]dec-3-en-2-one], the IC50 in assay [1] is 565 nM; in assay [2], 754 nM.

As to `CCCC1CCC2(CC1)CC(=O)C(c1cc(-c3ccc(Cl)cc3)ccc1C)=C2O` (stereo not drawn) [Example 6-6, 3-(4′-chloro-4-methylbiphenyl-3-yl)-4-hydroxy-8-propylspiro[4.5]dec-3-en-2-one], the IC50 in assay [1] amounted to 783 nM; in assay [2], 923 nM.

On to `Cc1ccc(-c2ccc(Cl)cc2)cc1C1=C(O)C2(CCCCCC2)CC1=O` [Example 6-7, 3-(4′-chloro-4-methylbiphenyl-3-yl)-4-hydroxyspiro[4.6]undec-3-en-2-one], for which the IC50 in assay [1] is 654 nM; in assay [2], 467 nM.

On to `Cc1cc(C)c(-c2ccc(Cl)cc2)cc1C1=C(O)C2(CCCCC2)CC1=O` [Example 6-8, 3-(4′-chloro-4,6-dimethylbiphenyl-3-yl)-4-hydroxyspiro[4.5]dec-3-en-2-one], for which the IC50 in assay [1] stood at 127 nM; in assay [2] it was 1380 nM.

On to `Cc1cc(C)c(-c2ccc(Cl)cc2)c(C)c1C1=C(O)C2(CCCCC2)CC1=O` [Example 6-9, 3-(4′-chloro-2,4,6-trimethylbiphenyl-3-yl)-4-hydroxyspiro[4.5]dec-3-en-2-one], for which the IC50 in assay [1] is 387 nM; in assay [2] it was greater than 20000 nM.

`Cc1ccc(-c2ccc(Cl)cc2)cc1C1=C(O)CC(C)CC1=O` (stereo not drawn) [Example 7-1, 2-(4′-chloro-4-methylbiphenyl-3-yl)-3-hydroxy-5-methylcyclohex-2-en-1-one]: the IC50 in assay [1] was greater than 20000 nM; in assay [2] it was 678 nM.

Consider `Cc1ccc(-c2ccc(Cl)cc2)cc1C1=C(O)CC2(CCCCC2)CC1=O` [Example 7-2, 3-(4′-chloro-4-methylbiphenyl-3-yl)-4-hydroxyspiro[5.5]undec-3-en-2-one], for which the IC50 in assay [1] is greater than 20000 nM; in assay [2] it was 578 nM.

In the case of `Cc1cc(C)c(-c2ccc(Cl)cc2)cc1C1=C(O)CC(C)(C)CC1=O` [Example 7-3, 2-(4′-chloro-4,6-dimethylbiphenyl-3-yl)-3-hydroxy-5,5-dimethylcyclohex-2-en-1-one], the IC50 turned out to be 5340 nM in assay [1] and 1590 nM in assay [2].

`Cc1cc(C)c(-c2ccc(Cl)cc2)cc1C1=C(O)C(C)(C)CCC1=O` [Example 7-4, 2-(4′-chloro-4,6-dimethylbiphenyl-3-yl)-3-hydroxy-4,4-dimethylcyclohex-2-en-1-one]: the figures for the IC50 in assay [1] and in assay [2] were 3710 nM and 3670 nM, respectively.

With `Cc1ccc(-c2ccc(Cl)cc2)cc1C1=C(O)CC(C)(C)CC1=O` [Example 7-5, 2-(4′-chloro-4-methylbiphenyl-3-yl)-3-hydroxy-5,5-dimethylcyclohex-2-en-1-one], the IC50 in assay [1] is greater than 20000 nM; in assay [2] it was 610 nM.

As for `Cc1ccc(-c2ccc(F)cc2)c(C)c1C1C(=O)N2CCCCN2C1=O` [Example 8-1, 2-(4′-fluoro-2,4-dimethylbiphenyl-3-yl)tetrahydro-1H-pyrazolo[1,2-a]pyridazine-1,3(2H)-dione], the IC50 was greater than 20000 nM in assay [1] and 2460 nM in assay [2].

Regarding `O=C1C(c2cc(-c3ccc(Cl)cc3)ccc2Cl)C(=O)N2CCCCN12` [Example 8-2, 2-(4,4′-dichlorobiphenyl-3-yl)tetrahydro-1H-pyrazolo[1,2-a]pyridazine-1,3(2H)-dione], the IC50 in assay [1] was greater than 20000 nM; in assay [2], 891 nM.

With `Cc1ccc(-c2ccc(Cl)cc2)cc1C1C(=O)N2CCCCN2C1=O` [Example 8-3, 2-(4′-chloro-4-methylbiphenyl-3-yl)tetrahydro-1H-pyrazolo[1,2-a]pyridazine-1,3(2H)-dione], the figures for the IC50 in assay [1] and in assay [2] were greater than 20000 nM and 1140 nM, respectively.

For `O=C1C(c2cc(-c3ccc(F)c(Cl)c3)ccc2Cl)C(=O)N2CCCCN12` [Example 8-4, 2-(3′,4-dichloro-4′-fluorobiphenyl-3-yl)tetrahydro-1H-pyrazolo[1,2-a]pyridazine-1,3(2H)-dione], the IC50 in assay [1] is greater than 20000 nM; in assay [2] it was 3180 nM.

On to `Cc1ccc(-c2ccc(F)cc2F)cc1C1C(=O)N2CCOCCN2C1=O` [Example 8-5, 8-(2′,4′-difluoro-4-methylbiphenyl-3-yl)tetrahydro-7H-pyrazolo[1,2-d][1,4,5]oxadiazepine-7,9(8H)-dione], for which the IC50 in assay [1] is greater than 20000 nM; in assay [2], 2080 nM.

For the compound `Cc1ccc(-c2ccc(Cl)cc2)cc1C1C(=O)N2CCOCCN2C1=O` [Example 8-6, 8-(4′-chloro-4-methylbiphenyl-3-yl)tetrahydro-7H-pyrazolo[1,2-d][1,4,5]oxadiazepine-7,9(8H)-dione], the values for the IC50 in assay [1] and in assay [2] were greater than 20000 nM and 1380 nM, respectively.

Turning to `Cc1ccc(-c2ccc(F)cc2)c(C)c1C1C(=O)N2CCOCCN2C1=O` [Example 8-7, 8-(4′-fluoro-2,4-dimethylbiphenyl-3-yl)tetrahydro-7H-pyrazolo[1,2-d][1,4,5]oxadiazepine-7,9(8H)-dione], the IC50 was greater than 20000 nM in assay [1] and 2380 nM in assay [2].

Consider `Cc1ccc(-c2ccc(Cl)cc2)c(C)c1C1C(=O)N2CCOCCN2C1=O` [Example 8-8, 8-(4′-chloro-2,4-dimethylbiphenyl-3-yl)tetrahydro-7H-pyrazolo[1,2-d][1,4,5]oxadiazepine-7,9(8H)-dione], for which the results for the IC50 in assay [1] and in assay [2] were 16900 nM and 936 nM, respectively.

As to `O=C1C(c2cc(-c3ccc(Cl)cc3Cl)ccc2Cl)C(=O)N2CCOCCN12` [Example 8-9, 8-(2′,4,4′-trichlorobiphenyl-3-yl)tetrahydro-7H-pyrazolo[1,2-d][1,4,5]oxadiazepine-7,9(8H)-dione], the IC50 was greater than 20000 nM in assay [1] and 457 nM in assay [2].

`O=C1C(c2cc(-c3ccc(Cl)c(Cl)c3)ccc2Cl)C(=O)N2CCOCCN12` [Example 8-10, 8-(3′,4,4′-trichlorobiphenyl-3-yl)tetrahydro-7H-pyrazolo[1,2-d][1,4,5]oxadiazepine-7,9(8H)-dione]: the IC50 was greater than 20000 nM in assay [1] and 1130 nM in assay [2].

In the case of `O=C1C(c2cc(-c3ccc(F)cc3F)ccc2Cl)C(=O)N2CCOCCN12` [Example 8-11, 8-(4-chloro-2′,4′-difluorobiphenyl-3-yl)tetrahydro-7H-pyrazolo[1,2-d][1,4,5]oxadiazepine-7,9(8H)-dione], the results for the half-maximal inhibitory concentration (IC50) in assay [1] and in assay [2] were greater than 20000 nM and 713 nM, respectively.
